Data set [1] concerns HEK293. Briefly: Cytotoxicity against HEK293 cells at 1 to 30 uM using acetoxymethylated compound after 2 days by MTT assay. The format is cell-based. Conditions: human, hek293, 48 h.
Data set [2] deals with HEK293. Description: Induction of H2S release in HEK293 cells at 100 uM using acetoxymethylated compound incubated for 30 mins followed by UV photoirradiation for 5 mins by fluorescence microscopic analysis. The format is functional, cell-based. Conditions: Homo sapiens.
Data set [3] can be described thus: Stability of the compound in phosphate buffer at 100 uM at pH 7.4 under dark condition after 1 month by HPLC analysis. Format: physicochemical. Conditions: pH 7.4, 730.5 h.
Data set [4] is described as follows: Induction of H2S release in phosphate buffer at 100 uM at pH 7.4 UV-irrdiated for 300 secs by fluorescence assay relative to control. The format is physicochemical. Conditions: pH 7.4, 5 min.
A short description of data set [5]: Induction of H2S release in phosphate buffer at 100 uM at pH 7.4 followed by UV-irrdiation by methylene-blue assay. The format is physicochemical. As to conditions: pH 7.4, 100 µM, TDE = time-dependent effect.
A short description of data set [6]: Induction of H2S release in phosphate buffer at 100 uM at pH 7.4 UV-irrdiated for 400 secs by methylene-blue assay. Format: physicochemical. As to conditions: pH 7.4, 0.111111 h.
Data set [7] has as its system HEK293. Description: Induction of H2S release in HEK293 cells at 100 uM incubated for 30 mins followed by UV photo-irradiation for 5 mins by fluorescence microscopic analysis. The format is functional, cell-based. Conditions: Homo sapiens.

The source made the active and inactive calls. The rule behind the calls is not given here.

As for `CC(CSCC(C)(C(=O)O)c1ccc2oc3ccccc3c(=O)c2c1)(C(=O)O)c1ccc2oc3ccccc3c(=O)c2c1` (configuration not stated), the Activity entry in data set [1] is listed as “Non-toxic”; in data set [4], “Active”; in data set [5], “tde”. For the same compound, in data set [2], the result was Active. Moreover, the Stability result in data set [3] is listed as “Stable”.

In data set [6], `CC(CSCC(C)(C(=O)O)c1cccc(C(=O)c2ccccc2)c1)(C(=O)O)c1cccc(C(=O)c2ccccc2)c1` (configuration not stated) had an Activity of 15 µM. For the same compound, the result in data set [7] was inactive.

These data come from ChEMBL document CHEMBL3351545, “Development of photo-controllable hydrogen sulfide donor applicable in live cells” (Bioorg Med Chem Lett, 2015).
